Assay results reported in ChEMBL document CHEMBL1151037, “Synthesis of a chemiluminescent probe useful for the purification of steroid 5-reductase” (Bioorg Med Chem Lett, 1996).

Biological target: T1, 3-oxo-5-alpha-steroid 4-dehydrogenase 1 (Rattus norvegicus, UniProt P24008)
T1 sequence (P24008 whole entry): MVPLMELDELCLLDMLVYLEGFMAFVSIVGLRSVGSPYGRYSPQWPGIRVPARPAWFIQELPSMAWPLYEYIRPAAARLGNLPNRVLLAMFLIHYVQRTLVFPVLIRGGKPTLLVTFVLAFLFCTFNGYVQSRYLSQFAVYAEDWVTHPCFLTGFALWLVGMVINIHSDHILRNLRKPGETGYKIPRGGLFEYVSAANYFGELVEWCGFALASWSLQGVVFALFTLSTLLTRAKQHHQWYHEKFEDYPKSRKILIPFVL
Assay: Compound was tested for its inhibitory potency against rat Steroid 5-alpha-reductase type 1 expressed in transformed yeast Saccharomyces cerevisiae

Row | IC50 [µM] | SMILES
1 | 0.5 | CCN(CCCCNC(=O)[C@H]1CCC2C3CCC4NC(=O)C=C[C@]4(C)C3CC[C@@]21C)c1ccc2c(=O)[nH][nH]c(=O)c2c1 (some centres not stated)
2 | 40 | CC(C)(C)NC(=O)[C@H]1CC[C@H]2[C@@H]3CC[C@H]4NC(=O)C=C[C@]4(C)[C@H]3CC[C@]12C [FINASTERIDE]
